Results as given in patent publication US11219650B2, “Agent for preventing or treating small intestinal injury induced by specific NSAID and PPI” (priority 2018, dated 2022).

Assays:
small intestinal injury [1] = conditions: Non-Patent Literature 1 (Wallace et al., Gastroenterology 2011); cited from earlier work
small intestinal injury [2] = conditions: rat, in vivo
Description: (§1) The animals were allowed to free access to a solid diet (CE-2, CLEA Japan, Inc.) and tap water.
(§2) At the start of the experiments, the blood was collected from the tail vein with hematocrit capillary tubes (Thermo Fisher Scientific K.K.) to measure hematocrit values. […] After grouping, the body weight of the animals was measured for nine days, and one of the PPIs (10 mg/kg) was intraperitoneally administered twice a day. For the normal group and the NSAID alone administration groups, vehicle was administered instead of the PPIs. From day 6 of PPI administration, one of the NSAIDs (10 mg/kg) was administered by oral gavage twice a day. For the normal group, vehicle was administered instead of the NSAIDs. For the bifidobacteria administration groups, one strain of the bacteria (1×10^9 cfu (colony forming unit)/animal) was further administered by oral gavage once a day. For the other groups, physiological saline was administered instead of the bifidobacteria. On the final day of the experiments, the hematocrit values were measured again, and the difference between the start and the end of the experiments was calculated and expressed as the rate of change of the hematocrit values. In aspirin administration experiments, the animals were fed with a high-fructose diet (EPS EKISHIN Co., Ltd) from the starting day of PPI administration.
(§3) Bifidobacteria administration was not performed. […]

small intestinal injury [3] = assay: Comparative Example 1: degree of small intestinal injury induction by sulindac and omeprazole, rate of change of hematocrit values; conditions: rats; sulindac as NSAID + omeprazole as PPI; no bifidobacteria; FIG. 10
Description: as §1, §2, §3

[4] = system: small intestinal injury induced by NSAID and PPI; assay: Test 1: inhibitory effects on NSAID and PPI induced small intestinal injury, rate of change of hematocrit values; format: in vivo, Wister male rats; conditions: rats, bacteria 1×10^9 cfu/animal oral once a day
Description: Frozen stocks of the following bacterial strains were statically cultured in GAM broth at 37° C. for 24 hours: the Bifidobacterium bifidum G9-1 strain (B. bifidum G9-1) (Accession No. NITE BP-817), the Bifidobacterium longum reference strain JCM (registered trademark) 1217^T (B. longum JCM 1217) (purchased from Japan Collection of Microorganisms (JCM), RIKEN BioResource Research Center), and the Bifidobacterium infantis reference strain JCM 1222T (B. infantis JCM 1222) (purchased from JCM). Each of the bacterial liquid cultures was inoculated into fresh GAM broth at a ratio (by volume) of liquid culture to GAM broth of 1:100, and statically cultured at 37° C. for 24 hours. […]
Small intestinal injury was induced by a combination of (S)-(+)-2-(6-methoxy-2-naphthyl)propionic acid (naproxen, Tokyo Chemical Industry Co., Ltd., dissolved in a 5% NaHCO3 solution; also called NAP) and omeprazole (omz) or by a combination of ibuprofen (Ibu) and omeprazole (omz). […] That is, the effect of B. bifidum on recovery from small intestinal injury induced by ibuprofen and omeprazole when compared with the effect of B. bifidum on recovery from small intestinal injury induced by naproxen and omeprazole was calculated by the following formula, taking the latter effect as 1.

With `COc1ccc2cc([C@H](C)C(=O)O)ccc2c1` [Naproxen, (S)-(+)-2-(6-methoxy-2-naphthyl)propionic acid] as the molecule, how does the “induction of small intestinal injury by naproxen in combination with omeprazole” value (small intestinal injury [1]) read?
The value was “induce small intestinal injury”.

Which “induction of small intestinal injury by combination of sulindac and omeprazole” value (small intestinal injury [2]) does the source give for `CC1=C(CC(=O)O)c2cc(F)ccc2/C1=C\c1ccc([S+](C)[O-])cc1` (centres unmarked) [sulindac] here?
Its value is “does not induce small intestinal injury”.

What about the “reduction of the hematocrit values induced by sulindac in combination with omeprazole” value (small intestinal injury [3]) of the same molecule?
Its value is “did not induce reduction of the hematocrit values”.

With Bifidobacterium longum as the molecule, how does the “inhibitory effect on small intestinal injury (hematocrit reduction) induced by ibuprofen and lansoprazole” value ([4]; ibuprofen 10 mg/kg oral + lansoprazole 10 mg/kg i.p. twice a day, FIG. 7) read?
The value was “higher inhibitory effect”.

What about the “inhibitory effect on small intestinal injury (hematocrit reduction) induced by ibuprofen and omeprazole” value ([4]; ibuprofen 10 mg/kg oral + omeprazole 10 mg/kg i.p. twice a day, FIG. 4) of the same molecule?
The value was “higher inhibitory effect”.
